Counter-ions that a name gives are not always drawn.
Columns and labels:
[1] = system: α1a and α1d subtypes over the α1b subtype; conditions: cited from earlier work
[2] = system: BPH patients; conditions: large clinical trials of BPH patients; cited from earlier work
[3] = system: micturition pressure; conditions: intrathecal; normal rats and rats with bladder hypertrophy secondary to outlet obstruction; cited from earlier work

| melting point | SMILES | further results |
| --- | --- | --- |
| 199 °C (dec.) | CCN([C@H]1CC[C@@H](N2CCN(c3ccccc3OC(C)C)CC2)CC1)S(=O)(=O)c1ccc(OC)c(OC)c1 (as salt: fumarate) [Cpd 67, N-Ethyl-N-cis-{4-[4-(2-isopropoxy-phenyl)-piperazin-1-yl]-cyclohexyl}-3,4-dimethoxy-benzenesulfonamide] |  |
| 186 °C (dec.) | CCN([C@H]1CC[C@H](N2CCN(c3ccccc3OC(C)C)CC2)CC1)S(=O)(=O)c1ccc(OC)c(OC)c1 (as salt: fumarate) [Cpd 68, N-Ethyl-N-trans-{4-[4-(2-isopropoxy-phenyl)-piperazin-1-yl]-cyclohexyl}-3,4-dimethoxy-benzenesulfonamide] |  |
| 232 °C | COc1ccc(S(=O)(=O)N[C@H]2CC[C@@H](N3CCN(c4cc(F)ccc4OCC(F)(F)F)CC3)CC2)cc1OC (as salt: fumarate) [Cpd 83, N-cis-(4-{4-[5-Fluoro-2-(2,2,2-trifluoro-ethoxy)-phenyl]-piperazin-1-yl}-cyclohexyl)-3,4-dimethoxy-benzenesulfonamide] |  |
| 185 °C | COc1ccc(S(=O)(=O)N[C@H]2CC[C@H](N3CCN(c4cc(F)ccc4OCC(F)(F)F)CC3)CC2)cc1OC (as salt: fumarate) [Cpd 84, N-trans-(4-{4-[5-Fluoro-2-(2,2,2-trifluoro-ethoxy)-phenyl]-piperazin-1-yl}-cyclohexyl)-3,4-dimethoxy-benzenesulfonamide] |  |
|  | CCOc1ccccc1OCCN[C@H](C)Cc1ccc(OC)c(S(N)(=O)=O)c1 [Tamsulosin] | selectivity for the α1a and α1d subtypes over the α1b subtype [1]: about 15 fold; effect on obstructive and irritative symptoms [2]: improvement in both obstructive and irritative symptoms |
|  | COc1cc2nc(N3CCN(C(=O)C4COc5ccccc5O4)CC3)nc(N)c2cc1OC (stereo not shown) [doxazosin] | effect on micturition pressure [3]: decrease in micturition pressure |

Reference: patent US20060173015A1, “Cyclohexyldiamines as selective alpha 1a/1d adrenoreceptor antagonists for the treatment of benign prostatic hypertrophy and lower urinary tract symptoms” (priority 2004, published 2006)
